Measured values reported in the supplement of paper PMC10307832.

Columns and labels:
Experiment in all cases: relative viability (nuclei count vs DMSO), 5 days (fraction); higher = more cells survive
Tipifarnib = compound: Cn1cncc1[C@@](N)(c1ccc(Cl)cc1)c1ccc2c(c1)c(-c1cccc(Cl)c1)cc(=O)n2C [Tipifarnib]
Summary of the method: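 After an overnight hold at 37 °C, lung cancer cell lines in 1536-well plates were pinned with five library-drug doses (not always all listed), each √10 from the next, on vehicle-anchored plates. The cells stayed 5 days without fresh medium, then a one-step fix, permeabilisation and Hoechst stain preceded 4× imaging and MetaXpress nuclear counts. A plate passed only with control CV under 25% and at least one doubling. Viability is the median, over plates, of treated-well nuclei relative to vehicle-well nuclei.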

Tipifarnib + Trametinib = compound: Cn1cncc1[C@@](N)(c1ccc(Cl)cc1)c1ccc2c(c1)c(-c1cccc(Cl)c1)cc(=O)n2C [Tipifarnib] + CC(=O)Nc1cccc(-n2c(=O)n(C3CC3)c(=O)c3c(Nc4ccc(I)cc4F)n(C)c(=O)c(C)c32)c1 [Trametinib] (partner 0.02 µM)
Summary of the method: (§1)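 Each reported value is a median over duplicate plates. It expresses relative viability: treated-well nuclei count divided by vehicle-well nuclei count. Lung cancer cell lines in 1536-well plates were dosed by pin tool a day after seeding, alone with one drug or with a fixed anchor-drug dose plus five library-drug doses (not always all listed) in √10 steps, and nuclei were counted after 5 days.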

Tipifarnib + OSI-027 = compound: Cn1cncc1[C@@](N)(c1ccc(Cl)cc1)c1ccc2c(c1)c(-c1cccc(Cl)c1)cc(=O)n2C [Tipifarnib] + COc1cccc2cc(-c3nc([C@H]4CC[C@H](C(=O)O)CC4)n4ncnc(N)c34)[nH]c12 [OSI-027] (partner 0.5 µM)
Summary of the method: as §1

Tipifarnib + Phenformin = compound: Cn1cncc1[C@@](N)(c1ccc(Cl)cc1)c1ccc2c(c1)c(-c1cccc(Cl)c1)cc(=O)n2C [Tipifarnib] + N=C(N)NC(=N)NCCc1ccccc1 [Phenformin] (partner 250 µM)
Summary of the method: as §1

| Cell Line | relative viability (Tipifarnib; 0.01 µM) | relative viability (Tipifarnib; 0.03162 µM) | relative viability (Tipifarnib; 0.1 µM) | relative viability (Tipifarnib; 0.3162 µM) | relative viability (Tipifarnib; 1 µM) | relative viability (Tipifarnib + Trametinib; first compound 0.01 µM) | relative viability (Tipifarnib + Trametinib; first compound 0.03162 µM) | relative viability (Tipifarnib + Trametinib; first compound 0.1 µM) | relative viability (Tipifarnib + Trametinib; first compound 0.3162 µM) | relative viability (Tipifarnib + Trametinib; first compound 1 µM) | relative viability (Tipifarnib + OSI-027; first compound 0.01 µM) | relative viability (Tipifarnib + OSI-027; first compound 0.03162 µM) | relative viability (Tipifarnib + OSI-027; first compound 0.1 µM) | relative viability (Tipifarnib + OSI-027; first compound 0.3162 µM) | relative viability (Tipifarnib + OSI-027; first compound 1 µM) | relative viability (Tipifarnib + Phenformin; first compound 0.01 µM) | relative viability (Tipifarnib + Phenformin; first compound 0.03162 µM) | relative viability (Tipifarnib + Phenformin; first compound 0.1 µM) | relative viability (Tipifarnib + Phenformin; first compound 0.3162 µM) | relative viability (Tipifarnib + Phenformin; first compound 1 µM) |
| --- | --- | --- | --- | --- | --- | --- | --- | --- | --- | --- | --- | --- | --- | --- | --- | --- | --- | --- | --- | --- |
| PC-14 | 0.9 | 0.695 | 0.481 | 0.32 | 0.263 | 0.579 | 0.357 | 0.447 | 0.2 | 0.334 | 0.795 | 0.29 | 0.216 | 0.157 | 0.124 | 0.512 | 0.494 | 0.282 | 0.239 | 0.128 |
| RERF-LC-KJ | 1.1 | 0.948 | 0.899 | 0.697 | 0.665 | 0.828 | 0.961 | 0.776 | 0.652 | 0.646 | 0.529 | 0.427 | 0.392 | 0.41 | 0.309 | 0.447 | 0.401 | 0.392 | 0.366 | 0.339 |
| SK-LU-1 | 1.03 | 0.778 | 0.711 | 0.536 | 0.634 | 0.572 | 0.483 | 0.442 | 0.384 | 0.392 | 0.324 | 0.286 | 0.293 | 0.222 | 0.181 | 0.528 | 0.324 | 0.307 | 0.275 | 0.283 |
| SK-MES-1 | 1.07 | 0.933 | 0.909 | 0.727 | 0.704 | 0.465 | 0.539 | 0.54 | 0.459 | 0.601 | 0.642 | 0.453 | 0.354 | 0.265 | 0.332 | 0.659 | 0.663 | 0.651 | 0.619 | 0.57 |
| SW 1573 | 0.965 | 0.603 | 0.477 | 0.42 | 0.357 | 0.487 | 0.354 | 0.362 | 0.255 | 0.25 | 0.583 | 0.244 | 0.292 | 0.238 | 0.17 | 0.362 | 0.299 | 0.268 | 0.156 | 0.197 |
| UMC-11 | 0.884 | 0.641 | 0.566 | 0.517 | 0.432 | 0.653 | 0.569 | 0.471 | 0.377 | 0.301 | 0.432 | 0.359 | 0.348 | 0.301 | 0.343 | 0.332 | 0.311 | 0.303 | 0.251 | 0.238 |
